Test results: PMC12797228 (ACS Infectious Diseases, 2025)
pEC50, pIC50: −log10 of the molar value. Converted amounts (≈) assume the structure as drawn. “And” between values parts separate entries of the source, which are not always exact repeats. Equal values may be shown once. Read-outs that look alike come from different tables or passages of the source.

Experiments:
[1] = target: T1, wild-type B. anthracis gyrase (Bacillus anthracis, UniProt A0A6H3A7B1+Q9X3Y6); experiment: biochemical; conditions: IC50, inhibition of DNA supercoiling
[2] = target: T2, wild-type B. anthracis topoisomerase IV (Bacillus anthracis, UniProt A0A6H3AG07+A0AAC8SCF4); experiment: biochemical; conditions: IC50, inhibition of DNA decatenation
[3] = system: B. anthracis (Ames strain); design: species or system BALB/c mice; conditions: mouse, in vivo
[4] = system: 30-strain panel of B. anthracis; experiment: microbe, parasite or virus in culture; assay type: cell-based, Bacillus anthracis; conditions: for MIC50 / MIC90: Bacillus anthracis
[5] = target: T1, wild-type B. anthracis gyrase; experiment: biochemical; conditions: EC50 (concentration that induces 50% maximal DNA cleavage)
[6] = system: B. anthracis; conditions: rabbit, in vivo; cited from earlier work
[7] = target: T2, wild-type B. anthracis topoisomerase IV; experiment: biochemical; conditions: EC50, DNA cleavage
[8] = female, BALB/c, mouse, in vivo
[9] = mouse, in vivo, po, 100 mg/kg
[10] = in vivo; conditions: female, BALB/c, mouse
[11] = in vitro; conditions: plasma

T2 sequence (A0A6H3AG07 1-807): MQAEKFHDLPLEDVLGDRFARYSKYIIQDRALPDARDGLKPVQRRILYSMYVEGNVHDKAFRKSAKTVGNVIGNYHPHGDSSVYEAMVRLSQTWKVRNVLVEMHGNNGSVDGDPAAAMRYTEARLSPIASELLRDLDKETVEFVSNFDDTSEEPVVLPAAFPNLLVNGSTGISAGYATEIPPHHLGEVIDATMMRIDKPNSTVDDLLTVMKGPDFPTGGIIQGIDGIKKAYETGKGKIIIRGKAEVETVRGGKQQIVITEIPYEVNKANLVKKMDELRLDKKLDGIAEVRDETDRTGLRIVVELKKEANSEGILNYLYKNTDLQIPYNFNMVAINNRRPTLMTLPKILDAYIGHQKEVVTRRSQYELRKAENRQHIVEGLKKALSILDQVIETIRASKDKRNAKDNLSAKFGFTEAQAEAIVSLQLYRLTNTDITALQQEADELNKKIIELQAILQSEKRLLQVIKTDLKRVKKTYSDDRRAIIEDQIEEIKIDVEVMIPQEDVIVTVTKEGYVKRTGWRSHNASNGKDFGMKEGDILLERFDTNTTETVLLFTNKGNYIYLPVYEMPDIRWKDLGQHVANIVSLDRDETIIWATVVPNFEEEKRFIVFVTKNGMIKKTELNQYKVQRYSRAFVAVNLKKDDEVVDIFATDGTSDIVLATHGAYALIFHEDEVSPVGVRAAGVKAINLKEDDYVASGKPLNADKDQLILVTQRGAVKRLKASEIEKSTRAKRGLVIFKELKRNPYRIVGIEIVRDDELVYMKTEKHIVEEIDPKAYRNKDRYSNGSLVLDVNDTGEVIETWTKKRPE
T2 sequence (A0AAC8SCF4 1-654): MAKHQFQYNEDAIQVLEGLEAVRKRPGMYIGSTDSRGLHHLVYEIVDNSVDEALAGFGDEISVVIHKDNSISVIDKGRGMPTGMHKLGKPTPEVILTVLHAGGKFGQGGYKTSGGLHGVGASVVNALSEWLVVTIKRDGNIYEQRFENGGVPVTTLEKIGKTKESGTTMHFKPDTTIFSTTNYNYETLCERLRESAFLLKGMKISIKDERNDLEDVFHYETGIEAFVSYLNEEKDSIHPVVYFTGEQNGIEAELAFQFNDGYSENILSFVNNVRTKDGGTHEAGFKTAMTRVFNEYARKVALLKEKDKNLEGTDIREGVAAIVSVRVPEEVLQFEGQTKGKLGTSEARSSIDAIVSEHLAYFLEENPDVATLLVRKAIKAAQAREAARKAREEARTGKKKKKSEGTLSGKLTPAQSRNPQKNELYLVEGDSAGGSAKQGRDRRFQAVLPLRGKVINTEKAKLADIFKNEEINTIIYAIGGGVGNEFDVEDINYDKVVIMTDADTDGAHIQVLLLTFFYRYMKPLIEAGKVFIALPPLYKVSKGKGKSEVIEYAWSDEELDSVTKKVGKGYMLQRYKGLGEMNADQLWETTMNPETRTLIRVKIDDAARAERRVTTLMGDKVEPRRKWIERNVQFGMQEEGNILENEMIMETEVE
T1 sequence (A0A6H3A7B1 1-823): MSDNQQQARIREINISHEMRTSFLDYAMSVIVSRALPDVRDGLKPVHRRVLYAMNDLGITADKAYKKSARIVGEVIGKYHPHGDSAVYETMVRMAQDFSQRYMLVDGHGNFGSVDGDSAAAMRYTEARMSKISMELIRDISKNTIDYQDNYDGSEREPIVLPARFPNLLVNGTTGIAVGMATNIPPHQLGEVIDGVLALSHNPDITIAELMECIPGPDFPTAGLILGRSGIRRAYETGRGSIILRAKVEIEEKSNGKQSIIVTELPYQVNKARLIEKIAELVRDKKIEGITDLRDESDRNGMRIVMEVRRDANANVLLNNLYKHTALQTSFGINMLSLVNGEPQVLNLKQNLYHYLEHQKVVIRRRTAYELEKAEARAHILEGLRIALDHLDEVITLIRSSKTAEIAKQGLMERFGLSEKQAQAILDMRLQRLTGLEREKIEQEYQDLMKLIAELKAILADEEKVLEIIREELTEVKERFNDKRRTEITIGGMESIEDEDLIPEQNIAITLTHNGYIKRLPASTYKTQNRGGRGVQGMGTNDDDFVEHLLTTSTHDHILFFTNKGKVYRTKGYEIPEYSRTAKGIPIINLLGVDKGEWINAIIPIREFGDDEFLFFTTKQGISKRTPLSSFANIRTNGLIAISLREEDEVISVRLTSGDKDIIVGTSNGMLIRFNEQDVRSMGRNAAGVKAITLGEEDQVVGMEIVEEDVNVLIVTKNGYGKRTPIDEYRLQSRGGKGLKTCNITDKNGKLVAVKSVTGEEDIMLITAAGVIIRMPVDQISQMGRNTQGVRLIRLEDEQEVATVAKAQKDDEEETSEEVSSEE
T1 sequence (Q9X3Y6 whole entry): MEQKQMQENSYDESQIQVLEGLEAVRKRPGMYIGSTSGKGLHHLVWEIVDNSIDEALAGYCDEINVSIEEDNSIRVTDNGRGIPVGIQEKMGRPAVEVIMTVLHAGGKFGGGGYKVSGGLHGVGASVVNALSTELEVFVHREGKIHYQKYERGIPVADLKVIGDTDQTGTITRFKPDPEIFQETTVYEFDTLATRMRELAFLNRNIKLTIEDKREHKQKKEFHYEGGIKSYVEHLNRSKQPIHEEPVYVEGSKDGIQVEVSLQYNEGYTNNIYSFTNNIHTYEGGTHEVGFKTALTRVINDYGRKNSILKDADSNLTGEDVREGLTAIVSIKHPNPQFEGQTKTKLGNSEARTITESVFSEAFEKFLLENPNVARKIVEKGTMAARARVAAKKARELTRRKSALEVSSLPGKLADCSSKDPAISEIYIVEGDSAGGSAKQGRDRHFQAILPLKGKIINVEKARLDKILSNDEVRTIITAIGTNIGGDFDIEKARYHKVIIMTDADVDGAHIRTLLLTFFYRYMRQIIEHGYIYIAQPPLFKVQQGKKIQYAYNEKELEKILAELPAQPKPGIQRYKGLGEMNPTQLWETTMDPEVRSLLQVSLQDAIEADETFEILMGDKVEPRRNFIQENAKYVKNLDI

With `O=C(O)c1cn(C2CC2)c2cc(N3CCNCC3)c(F)cc2c1=O` [Ciprofloxacin, ciprofloxacin] the pIC50 [1] was ~3.93 and 3.93, the pIC50 [2] was ~3.75 and 3.75 and the “Mice that survived to study termination on day 30 (of 10)” value [3] was 10.

In the case of `O=c1ccc2ncc(=O)n3c2n1C[C@H]3CN1CCC(NCc2cc3c(cn2)OCCC3)CC1` [Gepotidacin, gepotidacin, reference compound], the “Range of MIC values” [4] was 0.12 to 8 µg/mL, the MIC50 [4] was 0.5 µg/mL (≈ 1.11 µM) and the MIC90 [4] was 0.5 µg/mL (≈ 1.11 µM). For the same compound, the pEC50 [5] was 6.10 and ~6.10, the pIC50 [1] was ~4.63 and 4.63 and the pIC50 [2] was ~6.70 and 6.70. The “Rabbits that survived for at least 30 days” value [6] was “Ten out of 11”.

In the case of `COc1ccc2ncc(F)c(C[C@H](O)[C@H]3OC[C@H](NCc4cnc5c(n4)NC(=O)CO5)CO3)c2n1` [OSUAB-0284, 6-(((trans-2-((S)-2-(3-fluoro-6-methoxy-1,5-naphthyridin-4-yl)-1-hydroxyethyl)-1,3-dioxan-5-yl)amino)methyl)-2H-pyrazino[2,3-b][1,4]oxazin-3(4H)-one], the “Range of MIC values” [4] was no more than 0.03 to 4 µg/mL, the MIC50 [4] was 0.06 µg/mL (≈ 0.123 µM) and the MIC90 [4] was 0.25 µg/mL (≈ 0.514 µM). The pEC50 [5] was 6.15 and ~6.15, the pIC50 [1] was ~5.20 and 5.20 and the pEC50 [7] was 7.40 and ~7.40. For the same compound, the pIC50 [2] was ~7.00 and 7.00, the “Lung total bacterial burden and spore counts compared with the ciprofloxacin group” value [3] was “No significant differences” and the Survival [3] was 100% and 90% and 90–100%. The “dose-corrected exposure, higher vs lower dose group” value [8] was 1.5 fold, the “Lung AUC0-last” value ([8]; iv, 10 mg/kg) was 4,830 ng*h/mL and the “Lung AUCinf” value ([8]; iv, 10 mg/kg) was 5,033 ng*h/mL. For the same compound, the “Lung AUC0-last” value ([8]; po, 10 mg/kg) was 3,314 ng*h/mL, the “Lung AUCinf” value ([8]; po, 10 mg/kg) was 3,615 ng*h/mL and the “Lung AUC0-last” value ([8]; po, 50 mg/kg) was 37,227 ng*h/mL. The “Lung AUCinf” value ([8]; po, 50 mg/kg) was 44,292 ng*h/mL, the “Adverse events or cage-side observations” value [9] was “No adverse events or cage-side observations were noted” and the Kp [10] was 0.36 to 0.53. For the same compound, the half-life [10] was 2.6 h, the bioavailability ([10]; 10 mg/kg) was 80.6% and the AUC(0-inf) ([10]; iv, 10 mg/kg) was 11400 ng·h/mL. The AUC(0-t) ([10]; iv, 10 mg/kg) was 10800 ng·h/mL, the Cmax ([10]; iv, 10 mg/kg) was 17600 ng/mL and the Tmax ([10]; iv, 10 mg/kg) was 0.0833 h. For the same compound, the half-life ([10]; iv, 10 mg/kg) was 2.6 h, the AUC(0-inf) ([10]; po, 10 mg/kg) was 9160 ng·h/mL and the AUC(0-t) ([10]; po, 10 mg/kg) was 8470 ng·h/mL. The Cmax ([10]; po, 10 mg/kg) was 6280 ng/mL, the Tmax ([10]; po, 10 mg/kg) was 0.25 h and the half-life ([10]; po, 10 mg/kg) was 2.6 h. The AUC(0-inf) ([10]; po, 50 mg/kg) was 70200 ng·h/mL, the AUC(0-t) ([10]; po, 50 mg/kg) was 63000 ng·h/mL and the Cmax ([10]; po, 50 mg/kg) was 50300 ng/mL. The Tmax ([10]; po, 50 mg/kg) was 0.25 h, the half-life ([10]; po, 50 mg/kg) was 2.6 h and the fraction unbound [11] was 0.31.
